We go through 20 compounds from patent US9820972B2, “Antiviral compounds highly effective as HCV-NS5A inhibitor” (priority 2013, dated 2017).

A word on the EC50: it is the concentration needed to bring the measured effect to its halfway point.

SMILES strings stand for the structures. Read-outs that look alike come from different tables or passages of the source.

In data set [1] the test system is GT-1a of NS5A Replicon. Briefly: HCV double reporter gene (Renilla luciferase) replicon assay, GT-1a. The format is cell-based, Hepatitis C virus (HCV). As to conditions: Hepatitis C virus. A digest of the protocol: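 Replication measured in a double-reporter HCV replicon cell system by Renilla luciferase signal. EC50 from 8-point 2-fold dilutions, triplicate wells, three repeats, with 1 or 2 control drugs.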
In general terms: A reporter such as luciferase makes a cellular process visible.

Data set [2] in a line: Acute Toxicity Study (MTD). Type of data set: in vivo, rats and mice. Conditions: rats or mice, fed once, oral dose 10000 mg/kg, observed for a week. An excerpt: Acute Toxicity Study (MTD):
Materials and Methods for MTD Study are as follows:
Animals were fed freely for adaptation more than 1 week. Healthy rats, body weight between 170-190 g, were divided randomly into 3 groups, 5 male and 5 female in each group. Healthy mice, body weight between 18-22 g, were divided randomly into 22 groups, 5 male and 5 female in each group.
In rats, the compound weighing 21.00 g, serial number 1-3 respectively, adding 0.7% sodium carboxymethyl cellulose solution 30.00 g, high-speed homogenizer machine 15000 RPM, 10 min mixing, the rats were fed once, oral dose 10000 mg/kg. In mice, the compound weighing 2.00 g, serial number 4-25 respectively, adding 0.7% sodium carboxymethyl cellulose solution 8.00 g, high-speed homogenizer machine 10000 RPM, 10 min mixing, the mice were fed once, oral dose 10000 mg/kg.
Animals were observed every hour after administration in the first day, and behavior observation daily continuous for a week. Dead animals were necropsied, gross pathology of the organs were observed and recorded.
Toxicity was evaluated by animal mortality, signs of clinical behavior and others.

In data set [3] the test system is HCV NS5A Replicon GT-1b. Briefly: HCV double reporter gene replicon assay, GT-1b. The format is cell-based. As to conditions: Hepatitis C virus, genotype 1a / genotype 1b / genotype 6a; GT-1b replicon. The procedure: (§1) Antiviral Assay for Inhibition Activity (EC50):
(§2) The study is completed by a new constructed double reporter genes replicon assay system, the capacity of viral replicon in infected cell is determined by detecting the reporter gene Renilla luciferase. The relationship of reporter genes, HCV RNA replicon and viral proteins is well linear. 8 gradient concentrations for 2-fold dilution, 3 wells, 3 times repetition and 1 or 2 control drugs are set to finally determine EC50 of compound.
(§3) THF was distilled from sodium metal and benzophenone. DCM, pentane and hexane were distilled form calcium hydride. Special raw material and intermediate in the invention were ordered by contract synthesis from Zannan SciTech Co., Let in China, others reagents were purchased from Shanghai reagent company, Aldrich, Acros etc. As intermediates or products during the synthesis is not required for the reaction and other tests the next step, the synthesis is repeated until a sufficient number of times. The invention of the prepared compounds of […] (HCV NS5A) inhibitory activity test was performed by CRO service units such as WuXi AppTec etc.

Data set [4] relates to HCV NS5A Replicon GT-2a. Briefly: HCV double reporter gene replicon assay, GT-2a. Type of data set: cell-based. As to conditions: Hepatitis C virus, genotype 1a / genotype 2a / genotype 6a; GT-2a replicon. The procedure: as §1, §2, §3
Data set [5] has as its system HCV NS5A Replicon GT-6a. Briefly: HCV double reporter gene replicon assay, GT-6a. Type of data set: cell-based. Conditions: Hepatitis C virus, genotype 1a / genotype 6a; GT-6a replicon. The procedure: as §1, §2, §3
Data set [6] relates to HCV NS5A Replicon GT-3a. In words: HCV double reporter gene replicon assay, GT-3a. Conditions: Hepatitis C virus, genotype 1a / genotype 3a / genotype 6a; GT-3a replicon. Type of data set: cell-based. The procedure: as §1, §2, §3
Data set [7] relates to HCV NS5A Replicon GT-4a. In words: HCV double reporter gene replicon assay, GT-4a. Type of data set: cell-based. As to conditions: Hepatitis C virus, genotype 1a / genotype 4a / genotype 6a; GT-4a replicon. The procedure:
as §1, §2, §3

For data set [8], the system named is HCV NS5A Replicon GT-5a. Briefly: HCV double reporter gene replicon assay, GT-5a. The format is cell-based. Conditions: Hepatitis C virus, genotype 1a / genotype 5a / genotype 6a; GT-5a replicon. The procedure:
as §1, §2, §3

[9] abbreviates: GT1A, GT-1a replicon, class symbols, read-out: EC50 For GT-1a of NS5A Replicon.
Setting [10] is: genotype 1a / genotype 6a, read-out: EC50 for Replicon (pM) of GT-1a to GT-6a: 1a.

As to `COC(=O)N[C@@H](C(=O)N1CC=CC1c1nc(-c2ccc(-c3ccc(-c4c[nH]c(C5CCCN5C(=O)[C@H](NC(=O)OC)c5ccccc5)n4)cc3)cc2)c[nH]1)c1ccccc1` (stereo partly drawn) [Compound 6bz], in data set [1] (setting [9]), the EC50 lay within 1 to 999 pM. Also, the “MTD results: test-article related death and adverse events” value (shortened to “MTD results”) in data set [2] is “no any test-article related death and no any adverse events observed”.
Regarding `COC(=O)N[C@H](C(=O)N1CCC[C@H]1c1ncc(-c2ccc(-c3cc4sc(-c5cnc([C@@H]6C=CCN6C(=O)[C@H](NC(=O)OC)c6ccccc6)[nH]5)cc4s3)cc2)[nH]1)C(C)C` [Compound 6fm], the concentration giving a half-maximal response (EC50) amounted to 9 pM in data set [1] (setting [10]), 13 pM in data set [3], 8 pM in data set [4] and 23 pM in data set [5]. For the same compound, the “MTD results” value in data set [2] was “no any test-article related death and no any adverse events observed”.
Consider `COC(=O)N[C@H](C(=O)N1CC=CC1c1nc(-c2ccc(-c3ccc(-c4c[nH]c(C5CCCN5C(=O)[C@H](NC(=O)OC)c5ccccc5)n4)cc3)cc2)c[nH]1)C(C)C` (stereo partly drawn) [Compound 6by], for which the EC50 in data set [1] (setting [9]) was in the range of 1 to 999 pM. Also, in data set [2], the “MTD results” value is “no any test-article related death and no any adverse events observed”.
For the compound `COC(=O)N[C@H](C(=O)N1CCC[C@H]1c1nc(-c2ccc(-c3ccc(-c4c[nH]c([C@@H]5CCCN5C(=O)[C@@H](NC(=O)OC)C(C)C)n4)cc3)cc2)c[nH]1)C(C)C` [Ref-1, reference compound], the EC50 in data set [1] (setting [10]) is 52 pM; in data set [3] it was 21 pM; in data set [4] it was 29 pM; in data set [5] it was 118 pM.
For the compound `COC(=O)N[C@H](C(=O)N1CCC[C@H]1c1nc(-c2ccc(-c3ccc(-c4cnc([C@@H]5C=CCN5C(=O)[C@H](NC(=O)OC)c5ccccc5)[nH]4)cc3)cc2)c[nH]1)C(C)C` [Compound 6dy], the EC50 was determined as 11 pM in data set [1] (setting [10]), 14 pM in data set [3], 6 pM in data set [4] and 24 pM in data set [5].
Turning to `COC(=O)N[C@H](C(=O)N1CCCC1c1nc(-c2ccc(-c3ccc(-c4c[nH]c(C5C=CCN5C(=O)[C@H](NC(=O)OC)c5ccccc5)n4)cc3)cc2)c[nH]1)C(C)C` (stereo partly drawn) [Compound 6bx], the 50% effective concentration (EC50) in data set [1] (setting [9]) is 1 to 999 pM. Besides, the “MTD results” value in data set [2] is “no any test-article related death and no any adverse events observed”.
Take `COC(=O)N[C@H](C(=O)N1CC=C[C@H]1c1ncc(-c2cc3sc(-c4ccc(-c5cnc([C@@H]6CCCN6C(=O)[C@H](NC(=O)OC)c6ccccc6)[nH]5)cc4)cc3s2)[nH]1)C(C)C` [Compound 6fp]: the EC50 in data set [1] (setting [9]) was in the range of 1 to 999 pM. The “MTD results” value in data set [2] was “no any test-article related death and no any adverse events observed”.
`COC(=O)N[C@H](C(=O)N1CC=C[C@H]1c1ncc(-c2ccc(-c3ccc(-c4c[nH]c([C@@H]5CCCN5C(=O)[C@@H](NC(=O)OC)C(C)C)n4)cc3)cc2)[nH]1)C(C)C` [Compound 6ba]: the EC50 in data set [1] (setting [10]) came out at 39 pM; in data set [3], 12 pM; in data set [4], 16 pM; in data set [5], 221 pM. The “MTD results” value in data set [2] was “no any test-article related death and no any adverse events observed”.
Turning to `COC(=O)N[C@@H](C(=O)N1CC=CC1c1nc(-c2ccc(-c3cc4sc(-c5c[nH]c(C6CCCN6C(=O)[C@H](NC(=O)OC)c6ccccc6)n5)cc4s3)cc2)c[nH]1)c1ccccc1` (stereo partly drawn) [Compound 6fd], the EC50 in data set [1] (setting [9]) was 1 to 999 pM; in data set [1] (setting [10]), 21 pM; in data set [3] it was 11 pM; in data set [4], 5 pM; in data set [6] it was 15 pM; in data set [7], 8 pM. The EC50 in data set [8] is 23 pM; in data set [5], 111 pM. Besides, the “MTD results” value in data set [2] was “no any test-article related death and no any adverse events observed”.
Consider `COC(=O)N[C@H](C(=O)N1CC=C[C@H]1c1ncc(-c2ccc(-c3ccc(-c4cnc([C@@H]5CCCN5C(=O)[C@@H](NC(=O)OC)C5CCCC5)[nH]4)cc3)cc2)[nH]1)C1CCCC1` [Compound 6dp], for which the concentration for a half-maximal effect (EC50) in data set [1] (setting [9]) is 1 to 999 pM.
As for `CNC(=O)N[C@@H](C(=O)N1CC=CC1c1nc(-c2ccc(-c3ccc(-c4c[nH]c(C5CCCN5C(=O)[C@H](NC(=O)NC)c5ccccc5)n4)cc3)cc2)c[nH]1)c1ccccc1` (stereo partly drawn) [Compound 6cf], in data set [1] (setting [9]), the 50% effective concentration (EC50) was 1 to 999 pM.
The same measure, in the same setting: under `COC(=O)N[C@H](C(=O)N1CCC(O)[C@H]1c1ncc(-c2ccc(-c3ccc(-c4cnc([C@@H]5C=CCN5C(=O)[C@@H](NC(=O)OC)C(C)C)[nH]4)cc3)cc2)[nH]1)C(C)C` (stereo partly drawn) [Compound 6dr] stands 1 to 999 pM.
As for `COC(=O)N[C@H](C(=O)N1CC=C[C@H]1c1ncc(-c2ccc(-c3cc4sc(-c5cnc([C@@H]6CCCN6C(=O)[C@H](NC(=O)OC)c6ccccc6)[nH]5)cc4s3)cc2)[nH]1)C(C)C` [Compound 6fi], the EC50 in data set [1] (setting [10]) was found to be 20 pM; in data set [3], 5 pM; in data set [4], 7 pM; in data set [5] it was 55 pM. For the same compound, the “MTD results” value in data set [2] is “no any test-article related death and no any adverse events observed”.
For `COC(=O)N[C@H](C(=O)N1C[C@@H](OC(=O)N2Cc3cc4c(cc3C2)OCO4)CC1c1nc(-c2ccc(-c3ccc(-c4c[nH]c([C@@H]5COCCN5C(=O)[C@@H](NC(=O)OC)C(C)C)n4)cc3)cc2)c[nH]1)C(C)C` (stereo partly drawn) [Compound 6ah], in data set [1] (setting [9]), the half-maximal effective concentration (EC50) is 1 to 999 pM.
For `COC(=O)N[C@H](C(=O)N1CCCC1c1nc(-c2cc3sc(-c4ccc(-c5c[nH]c(C6C=CCN6C(=O)[C@H](NC(=O)OC)c6ccccc6)n5)cc4)cc3s2)c[nH]1)C(C)C` (stereo partly drawn) [Compound 6fc], the “MTD results” value in data set [2] is “no any test-article related death and no any adverse events observed”.
Take `COC(=O)N[C@H](C(=O)N1C[C@H](OC(=O)N2Cc3cc4c(cc3C2)OCO4)C[C@H]1c1nc(-c2ccc(-c3ccc(-c4cnc([C@@H]5C[C@@H](OC(=O)N6Cc7cc8c(cc7C6)OCO8)CN5C(=O)[C@@H](NC(=O)OC)C(C)C)[nH]4)cc3)cc2)c[nH]1)C(C)C` [Compound 6n]: in data set [1] (GT1A, read-out: EC50 For GT-1a of NS5A Replicon), the EC50 is above 50000 pM.
As to `COC(=O)N[C@H](C(=O)N1CC=C[C@H]1c1ncc(-c2ccc(-c3cc4sc(-c5cnc([C@@H]6CCCN6C(=O)[C@@H](NC(=O)OC)C(C)C)[nH]5)cc4s3)cc2)[nH]1)C(C)C` [Compound 6fg], the concentration for a half-maximal effect (EC50) in data set [1] (setting [9]) lay in the range of 1 to 999 pM. Moreover, the “MTD results” value in data set [2] was “no any test-article related death and no any adverse events observed”.
With `COC(=O)N[C@H](C(=O)N1CC=CC1c1nc(-c2ccc(-c3ccc(-c4c[nH]c([C@@H]5CCCN5C(=O)C5(NC(=O)OC)CCCCC5)n4)cc3)cc2)c[nH]1)C(C)C` (stereo partly drawn) [Compound 6bj], the EC50 in data set [1] (setting [9]) was 1 to 999 pM.
Still for that read-out and setting: then `COC(=O)N[C@H](C(=O)N1C[C@@H](OC(=O)N2Cc3cc4c(cc3C2)OCO4)CC1c1nc(-c2ccc(-c3ccc(-c4c[nH]c([C@@H]5CCCCN5C(=O)[C@@H](NC(=O)OC)C(C)C)n4)cc3)cc2)c[nH]1)C(C)C` (stereo partly drawn) [Compound 6ac], with 1 to 999 pM; and `COC(=O)N[C@H](C(=O)N1C[C@H](OC(=O)N2Cc3cc4c(cc3C2)OCO4)CC1c1ncc(-c2ccc(-c3ccc(-c4c[nH]c([C@@H]5CCCN5C(=O)[C@@H](NC(=O)OC)C(C)C)n4)cc3)cc2)[nH]1)C(C)C` (stereo partly drawn) [Compound 6i], with 1 to 999 pM.
